Experimental data as given in ChEMBL document CHEMBL1828555, “Primary amino acid derivatives: substitution of the 4'-N'-benzylamide site in (R)-N'-benzyl 2-amino-3-methylbutanamide, (R)-N'-benzyl 2-amino-3,3-dimethylbutanamide, and (R)-N'-benzyl 2-amino-3-methoxypropionamide provides potent anticonvulsants with pain-attenuating properties” (J Med Chem, 2011).
The source made the active and inactive calls. No cut-off for these calls is given here.

Key:
[1] = test system: Mus musculus; assay: Anticonvulsant activity in ip dosed albino CF1 mouse assessed as protection against subcutaneous pentylenetetrazol-induced seizure; assay type: functional, organism-based
[2] = test system: Mus musculus; assay: Anticonvulsant activity in ip dosed 6 Hz psychomotor seizure model of NMRI mouse assessed as protection against seizure after 30 minutes; assay type: functional; conditions: 0.5 h
[3] = test system: Mus musculus; assay: Analgesic activity in ip dosed NMRI mouse assessed as reduction in formalin-induced neuropathic pain after 30 mins; assay type: functional; conditions: 0.5 h
[4] = test system: Mus musculus; assay: Anticonvulsant activity in ip dosed NMRI mouse assessed as protection against maximal electroshock seizure after 30 mins; assay type: functional; conditions: 0.5 h
[5] = Neurotoxicity in ip dosed NMRI mouse assessed as median neurological impairing dose after 30 mins by rotarod test; assay type: toxicity, organism-based; conditions: in vivo
[6] = test system: Mus musculus; assay: Protective index, ratio of TD50 for ip dosed NMRI mouse to ED50 for ip dosed NMRI mouse by maximal electroshock test; assay type: functional
[7] = test system: Mus musculus; assay: Neurotoxicity in ip dosed albino CF1 mouse assessed as time of peak effect for median neurological impairing; assay type: toxicity, organism-based; conditions: in vivo
[8] = Neurotoxicity in ip dosed albino CF1 mouse assessed as median neurological impairing dose after 30 mins; assay type: toxicity, organism-based; conditions: in vivo
[9] = test system: Mus musculus; assay: Anticonvulsant activity in ip dosed albino CF1 mouse assessed as time of peak effect for protection against maximal electroshock-induced seizure; assay type: functional
[10] = test system: Mus musculus; assay: Anticonvulsant activity in ip dosed albino CF1 mouse assessed as protection against maximal electroshock-induced seizure after 30 mins; assay type: functional; conditions: 0.5 h
[11] = test system: Mus musculus; assay: Analgesic activity in ip dosed albino CF1 mouse assessed as reduction of formalin-induced neuropathic pain after 30 mins; assay type: functional; conditions: 0.5 h
[12] = Toxicity in po dosed albino Sprague-Dawley rat assessed as behavioural toxicity; assay type: organism-based; conditions: in vivo
[13] = test system: Rattus norvegicus; assay: Anticonvulsant activity in po dosed albino Sprague-Dawley rat assessed as time of peak effect for protection against maximal electroshock seizure; assay type: functional
[14] = test system: Mus musculus; assay: Anticonvulsant activity in ip dosed albino CF1 mouse assessed as protection against 6 Hz psychomotor seizure after 30 mins; assay type: functional; conditions: 0.5 h
[15] = test system: Rattus norvegicus; assay: Toxicity in po dosed albino Sprague-Dawley rat assessed as time of peak effect for behavioural toxicity; assay type: organism-based; conditions: in vivo
[16] = test system: Rattus norvegicus; assay: Anticonvulsant activity in po dosed albino Sprague-Dawley rat assessed as protection against maximal electroshock seizure; assay type: functional
[17] = test system: Mus musculus; assay: Protective index, ratio of TD50 for ip dosed albino CF1 mouse to ED50 for ip dosed albino CF1 mouse by maximal electroshock test; assay type: functional
[18] = test system: Rattus norvegicus; assay: Protective index, ratio of TD50 for po dosed albino Sprague-Dawley rat to ED50 for po dosed albino Sprague-Dawley rat by maximal electroshock test; assay type: functional
[19] = test system: Mus musculus; assay: Anticonvulsant activity in ip dosed albino CF1 mouse assessed as time of peak effect for protection against 6 Hz psychomotor seizure; assay type: functional
[20] = test system: Mus musculus; assay: Analgesic activity in NMRI mouse assessed as reduction in formalin-induced neuropathic pain at 110 mg/kg, ip; assay type: functional; set-up: scale not given: the % may be the effect or the level left; conditions: route intraperitoneal
[21] = test system: Mus musculus; assay: Analgesic activity in ip dosed albino CF1 mouse assessed as time of peak effect for reduction of formalin-induced neuropathic pain; assay type: functional

Row | SMILES | Activity [1] | ED50 [2] [mg/kg] | ED50 [3] [mg/kg] | ED50 [4] [mg/kg] | Ratio TD50/ED50 [6] | Time [7] [h] | TD50 at 0.5 h [8] [mg/kg] | Time [9] [h] | ED50 [10] [mg/kg] | TD50 [12] [mg/kg] | Time [13] [h] | ED50 [14] [mg/kg] | ED50 [16] [mg/kg] | Ratio TD50/ED50 [17] | Time [19] [h] | other results
1 | C[C@@H](N)C(=O)NCc1ccc(OCc2cccc(F)c2)cc1 | inactive | > 120 | > 37 | 17 |  |  |  |  |  |  |  |  |  |  |  | 
2 | COC[C@@H](N)C(=O)NCc1ccc(C(F)(F)F)cc1.Cl | inactive | 55 | > 31 | 19 | 2.5 |  |  |  |  |  |  |  |  |  |  | TD50 at 0.5 h [5]: 48 mg/kg
3 | COC[C@@H](N)C(=O)NCc1ccccc1.Cl | inactive | > 67 | > 67 | 34 | >3.5 | 0.25 | 30 | 0.25 | 48 |  |  |  |  |  |  | TD50 at 0.5 h [5]: > 120 mg/kg
4 | C[C@@H](N)C(=O)NCc1ccccc1 |  |  |  |  |  |  | 100 |  | 10 |  |  |  |  |  |  | ED50 [11]: 69 mg/kg
5 | COC[C@@H](NC(C)=O)C(=O)NCc1ccccc1 [LACOSAMIDE] |  | 10 | 15 | 3.3 |  | 0.25 | 27 | 0.5 |  | > 500 | 2 | 10 |  |  |  | TD50 at 0.5 h [5]: 19 mg/kg
6 | CC(C)(C)[C@@H](N)C(=O)NCc1ccc(OC(F)(F)F)cc1 | inactive |  |  |  |  | 0.25 | 73 | 1 | 28 | > 30 | 2 |  | 23 | 2.6 |  | Time [15]: 0.25 h
7 | CCC1(c2ccccc2)C(=O)NC(=O)NC1=O [PHENOBARBITAL] |  |  |  |  |  | 0.5 | 66 | 1 |  |  | 5 |  |  | 3 |  | Time [15]: 0.5 h
8 | CC(C)[C@@H](N)C(=O)NCc1ccc(C(F)(F)F)cc1 | inactive |  |  |  |  | 0.25 | 57 | 0.5 | 14 | > 500 | 1 | 30 | 13 | 4.1 | 0.5 | Ratio TD50/ED50 [18]: >38
9 | COC[C@H](N)C(=O)NCc1ccccc1 | inactive | > 70 | 120 | 64 | 1 |  |  |  |  |  |  |  |  |  |  | TD50 at 0.5 h [5]: 63 mg/kg
10 | CC(C)[C@@H](N)C(=O)NCc1ccc(OCc2cccc(F)c2)cc1 | inactive | > 110 |  | 12 |  |  |  |  |  |  |  |  |  |  |  | Activity [20]: 80%
11 | COC[C@@H](N)C(=O)NCc1ccc(OCc2cccc(F)c2)cc1 | inactive |  |  |  |  | 0.25 | 58 | 0.5 | 15 | > 500 | 0.5 | < 50 | 13 | 3.9 | 0.5 | Ratio TD50/ED50 [18]: >38
12 | CC(C)[C@@H](N)C(=O)NCc1ccc(OC(F)(F)F)cc1 | inactive |  |  |  |  | 0.25 | 84 | 0.25 | 16 | > 500 | 1 | 28 | 18 | 5.3 | 0.5 | Ratio TD50/ED50 [18]: >27; Time [21]: 0.25 h; ED50 [11]: 16 mg/kg
13 | CC(C)(C)[C@H](N)C(=O)NCc1ccccc1 | inactive |  |  |  | 2.5 | 0.25 | 105 | 0.25 | 42 |  |  |  |  |  |  | 
14 | CC(C)(C)[C@@H](N)C(=O)NCc1ccccc1 | inactive | > 71 | > 22 | 13 | 4.7 | 0.25 | 66 | 0.25 | 14 | > 500 | 0.25 | 30 | 11 | 4.7 | 0.25 | Ratio TD50/ED50 [18]: >45
15 | CC(C)[C@@H](N)C(=O)NCc1ccc(COc2cccc(F)c2)cc1 | inactive | > 110 | 30 | 12 | 3.9 | 0.5 | 71 | 0.25 | 18 | > 30 | 0.5 | 30 | < 30 |  | 0.5 | Time [15]: 0.25 h
16 | CC(C)(C)[C@@H](N)C(=O)NCc1ccc(C(F)(F)F)cc1 | inactive |  |  |  |  | 0.25 | 133 | 0.25 | 24 | > 30 | 0.5 |  | < 30 | 5.5 |  | Time [15]: 0.25 h
17 | CC(C)(C)[C@@H](N)C(=O)NCc1ccc(Cl)cc1 | inactive |  |  |  |  | 0.5 | 84 | 0.25 | 25 | > 30 | 0.25 | < 100 | 30 | 3.4 | 0.25 | Time [15]: 0.25 h; Time [21]: 0.25 h; ED50 [11]: 25 mg/kg
18 | COC[C@@H](N)C(=O)NCc1ccc(OC(F)(F)F)cc1.Cl | inactive |  |  | 10 |  |  |  |  |  |  |  |  |  |  |  | TD50 at 0.5 h [5]: 30 mg/kg
19 | CC(C)[C@@H](N)C(=O)NCc1ccc(Cl)cc1 | inactive |  |  |  |  | 0.25 | 74 | 0.25 | 22 |  |  | 50 |  | 3.4 | 0.25 | Time [21]: 0.25 h; ED50 [11]: 22 mg/kg
20 | CC(C)[C@@H](N)C(=O)NCc1ccc(F)cc1 | inactive |  |  |  |  | 0.25 | 97 | 0.25 | 32 | > 500 | 0.5 | 63 | 21 | 3 | 0.25 | Ratio TD50/ED50 [18]: >24; Time [21]: 0.25 h; ED50 [11]: 32 mg/kg
